Where a SMILES comes first, the peptide text is derived from it. [ ]: non-standard residue; d: D form. Aoe = N[C@@H](CCCCCC(=O)[C@@H]1CO1)C(=O)O
What was measured:
[1] = system: J77 cells; test: CD3 clustering in the central region of the immunological synapse; type: cell-based, human; settings: for reversion of the prevention of CD3 clustering caused by HDAC6-GFP: J77 cells transfected with HDAC6-GFP, SEE-marked Raji cells, 30 minutes at 37°C, Figures 5A and B
[2] = system: J77 cells; test: LFA-1 organization in the immunological synapse peripheral ring; type: cell-based, human; settings: J77 cells with SEE-marked Raji cells, 30 minutes at 37°C; Figure 6 and data not shown
[3] = system: J77 cells; test: Microtubule organizing centre (MTOC) translocation assay; type: cell-based, human; settings: for restoration of MTOC translocation in cells transfected with HDAC6-GFP: J77 cells transfected with HDAC6-GFP, SEE-pulsed Raji cells, 3 µM TSA, Figures 7A and B; for MTOC translocation: Figure 7B
Procedure: A 1:1 ratio of Raji cells and T cells transfected with HDAC6 were placed in contact for 15 minutes at 37°C in RPMI medium. The cell conjugates were then gently resuspended and plated on PLL-coated cover slips for 15 more minutes as previously described (Sancho et al., 2002). The cell conjugates were then fixed, permeabilized and stained for α-tubulin for the purpose of observation by immunofluorescence microscopy. The MTOC was considered to be redirected when it was in close proximity with the T cell plasma membrane, between the cell nucleus and the contact area with the antigen-presenting cell. At least 200 cell conjugates were counted in each experiment.

[4] = target: T1, HDAC6 (Homo sapiens, UniProt Q9UBN7); settings: CD4+ T lymphocytes and J77 cells pre-treated for 30 minutes (3µM TSA or 5 mM sodium butyrate), SEE-pulsed Raji cells; Figure 3B
T1 sequence (Q9UBN7 1-1215): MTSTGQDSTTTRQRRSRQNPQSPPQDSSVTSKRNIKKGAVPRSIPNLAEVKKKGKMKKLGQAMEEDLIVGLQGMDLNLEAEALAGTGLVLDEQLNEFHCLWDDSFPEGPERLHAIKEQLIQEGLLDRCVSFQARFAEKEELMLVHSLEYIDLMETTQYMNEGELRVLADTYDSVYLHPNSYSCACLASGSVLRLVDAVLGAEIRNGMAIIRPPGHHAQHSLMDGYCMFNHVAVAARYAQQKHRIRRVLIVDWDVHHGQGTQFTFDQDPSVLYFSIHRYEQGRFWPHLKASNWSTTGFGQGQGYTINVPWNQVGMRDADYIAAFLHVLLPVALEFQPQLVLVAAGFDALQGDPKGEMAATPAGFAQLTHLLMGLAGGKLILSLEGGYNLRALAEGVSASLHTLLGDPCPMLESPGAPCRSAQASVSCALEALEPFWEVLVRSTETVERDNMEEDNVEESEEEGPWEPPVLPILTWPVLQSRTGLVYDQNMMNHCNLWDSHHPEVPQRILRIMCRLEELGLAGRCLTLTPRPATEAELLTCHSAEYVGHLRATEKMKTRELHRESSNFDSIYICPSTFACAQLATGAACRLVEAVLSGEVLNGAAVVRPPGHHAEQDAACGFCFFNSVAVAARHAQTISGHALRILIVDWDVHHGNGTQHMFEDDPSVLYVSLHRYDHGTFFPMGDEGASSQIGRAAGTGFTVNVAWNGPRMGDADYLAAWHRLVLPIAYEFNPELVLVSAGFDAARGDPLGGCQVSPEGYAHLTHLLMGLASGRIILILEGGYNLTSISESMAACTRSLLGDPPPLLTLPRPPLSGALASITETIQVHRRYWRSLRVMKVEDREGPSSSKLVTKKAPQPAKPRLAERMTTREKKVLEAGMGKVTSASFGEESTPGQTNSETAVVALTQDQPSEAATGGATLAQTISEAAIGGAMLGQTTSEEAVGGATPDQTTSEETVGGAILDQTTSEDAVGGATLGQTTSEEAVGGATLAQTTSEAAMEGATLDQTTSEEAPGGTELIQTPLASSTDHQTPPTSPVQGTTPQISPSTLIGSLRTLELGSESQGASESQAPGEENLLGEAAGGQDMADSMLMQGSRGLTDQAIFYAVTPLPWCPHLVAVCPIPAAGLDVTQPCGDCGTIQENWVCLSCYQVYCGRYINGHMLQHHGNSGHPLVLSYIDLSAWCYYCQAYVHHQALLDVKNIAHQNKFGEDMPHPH

[5] = treatment effect in the quantitative analysis

For CC(/C=C/C(=O)NO)=C\[C@@H](C)C(=O)c1ccc(N(C)C)cc1 [TSA, Trichostatin A], which “kinetics of CD3 clustering in the central region of the immunological synapse” value ([1]; J77 cells pre-treated, Raji cells marked with 1µg/ml SEE, different times, Figure 5C) is on record?
Its value is “accelerated”.

And the “reversion of the prevention of CD3 clustering caused by HDAC6-GFP” value (“reversion” below) [1]?
The value was “reverted”.

And the CD3 clustering ([1]; pretreated cells in contact with SEE-marked Raji cells, Figure 5B)?
The CD3 clustering was “slight increase”.

What about the “LFA-1 organization in the peripheral ring of the immunological synapse” value [2] of the same compound?
The value was “well organized”.

What about the “restoration of MTOC translocation in cells transfected with HDAC6-GFP” value (“restoration of MTOC translocation” for short) [3] of the same compound?
The value was “restored normal translocation”.

What about the “kinetics of MTOC translocation” value ([3]; cell conjugates between J77 and Raji cells, different times, Figure 7C) of the same compound?
The value was “accelerates”.

What about the MTOC translocation ([3]; peripheral blood CD4+ lymphocytes with SEE-pulsed Raji cells) of the same compound?
Its MTOC translocation is “increases”.

O=C1N[C@@H](Cc2ccccc2)C(=O)N2CCC[C@@H]2C(=O)N[C@@H](CCCCCC(=O)[C@@H]2CO2)C(=O)N[C@H]1Cc1ccccc1 [trapoxin B] (cyclo(FF[dP][Aoe])) was tested. Which “reversion” value [1] did it give?
Its value is “not”.

What about the “restoration of MTOC translocation” value [3] of the same compound?
Its value is “not”.

What about the MTOC translocation [3, 5] of the same compound?
Its MTOC translocation is “did not affect”.

With CCCC(=O)[O-].[Na+] [sodium butyrate] as the compound, how does the “reversion” value [1] read?
Its value is “not”.

And the “restoration of MTOC translocation” value [3]?
The value was “not”.

And the MTOC translocation [3, 5]?
Its MTOC translocation is “did not affect”.

What about the “acetylated tubulin staining in the contact site with antigen-presenting cells” value [4] of the same compound?
The value was “weak”.

From patent EP1707622A1, “USE OF COMPOUNDS THAT REGULATE HDAC6 TUBULIN DEACETYLASE ACTIVITY IN THE PREPARATION OF PHARMACEUTICAL COMPOSITIONS, METHOD OF IDENTIFYING THE AFOR[…], SAID PHARMACEUTICAL COMPOUNDS AND APPLICATIONS THEREOF” (UNIVERSIDAD AUTONOMA DE MADRID CIUDAD UNIVERSITARIA …, priority 2004, dated 2005)
